Measured values: patent publication US20060089378A1 (priority 2004, published 2006)
Like-named read-outs stand apart in the source and are kept apart here.

Tests used:
[1] = target: CB1 receptor (human) (Homo sapiens, UniProt P21554); assay: cell-based; conditions: for CB1 Receptor Functional Activity (change in functional activity, CRE β-gal): one compound concentration, β-galactosidase activity relative to vehicle treated cells
[2] = target: T1, Cannabinoid CB1 Receptor (Homo sapiens, UniProt P21554); assay: Binding assay for CB1 agonists or inverse agonists (radioligand competition, membranes of transfected SK-N-MC cells)
T1 construct: expressed in transfected cells

[3] = target: T2, Cannabinoid CB2 Receptor (Homo sapiens, UniProt P34972); assay: Binding assay for CB2 agonists or inverse agonists (radioligand competition, membranes of transfected SK-N-MC cells); conditions: for inhibition at 0.2 µM: read-out: Cannabinoid CB2 Receptor Binding percent inhibition
T2 construct: expressed in transfected cells

[4] = human CB1, SK-N-MC cell membranes, calculated by linear regression from percent inhibition at various concentrations, read-out: Cannabinoid CB1 Receptor Binding IC50
[5] = human CB2, SK-N-MC cell membranes, calculated by linear regression from percent inhibition at various concentrations, read-out: Cannabinoid CB2 Receptor Binding IC50

CB1 receptor (human), sequence (P21554 whole entry): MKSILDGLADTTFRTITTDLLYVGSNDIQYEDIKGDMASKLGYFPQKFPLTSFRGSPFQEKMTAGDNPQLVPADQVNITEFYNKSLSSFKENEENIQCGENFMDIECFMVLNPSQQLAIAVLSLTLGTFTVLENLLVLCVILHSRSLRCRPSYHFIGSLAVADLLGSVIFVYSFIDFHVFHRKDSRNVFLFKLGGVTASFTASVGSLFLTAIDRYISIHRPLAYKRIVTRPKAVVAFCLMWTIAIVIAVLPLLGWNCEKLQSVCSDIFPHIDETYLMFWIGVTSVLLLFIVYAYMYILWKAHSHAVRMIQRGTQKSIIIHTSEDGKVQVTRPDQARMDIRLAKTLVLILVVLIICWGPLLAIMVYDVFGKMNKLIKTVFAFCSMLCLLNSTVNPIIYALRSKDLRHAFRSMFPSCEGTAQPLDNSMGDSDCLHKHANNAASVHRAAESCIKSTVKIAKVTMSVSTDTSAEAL
T1 sequence (P21554 whole entry): as above
T2 sequence (P34972 whole entry): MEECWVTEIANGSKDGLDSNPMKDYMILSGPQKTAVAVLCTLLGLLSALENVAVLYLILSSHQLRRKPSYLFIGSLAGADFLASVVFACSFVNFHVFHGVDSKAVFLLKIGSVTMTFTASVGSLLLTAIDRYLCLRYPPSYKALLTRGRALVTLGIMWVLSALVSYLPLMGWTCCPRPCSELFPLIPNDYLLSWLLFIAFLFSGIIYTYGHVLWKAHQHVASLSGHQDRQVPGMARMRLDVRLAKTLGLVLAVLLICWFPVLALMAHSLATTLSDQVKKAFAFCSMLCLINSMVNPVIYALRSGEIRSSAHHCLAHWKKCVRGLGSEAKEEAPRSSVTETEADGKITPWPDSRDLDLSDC

| Structure (SMILES) | EC50 [1] | IC50 [2] | inhibition at 0.2 µM [3] | also measured |
| --- | --- | --- | --- | --- |
| COC(=O)N1CCc2c(c(C(=O)NC3C4CC5CC(C4)CC3C5)nn2C2CCCCC2)C1 (stereo not drawn) [Cpd 131, 3-(adamantan-2-ylcarbamoyl)-1-cyclohexyl-1,4,6,7-tetrahydro-pyrazolo[4,3-c]pyridine-5-carboxylic acid methyl ester] | – | – | – | CB1 Receptor Functional Activity (change in functional activity, CRE β-gal) [1]: −49%; IC50 [2, 4]: 2700 nM; IC50 [3, 5]: 200 nM |
| COC(=O)N1C/C(=C\c2ccc(F)cc2)c2c(c(C(=O)NN3CC4CCCC4C3)nn2-c2ccc(Cl)cc2)C1 (stereo not drawn) [Cpd 87, (7E)-1-(4-chloro-phenyl)-7-(4-fluoro-benzylidene)-3-(hexahydro-cyclopenta[c]pyrrol-2-ylcarbamoyl)-1,4,6,7-tetrahydro-pyrazolo[4,3-c]pyridine-5-carboxylic acid methyl ester] | 1 nM | 50 nM | 16% | – |
| COc1ccc(/C=C2\CNCc3c(C(=O)NC(C)c4ccccn4)nn(-c4ccc(Cl)cc4Cl)c32)cc1 (stereo not drawn) [Cpd 49, (7E)-1-(2,4-dichloro-phenyl)-7-(4-methoxy-benzylidene)-4,5,6,7-tetrahydro-1H-pyrazolo[4,3-c]pyridine-3-carboxylic acid (1-pyridin-2-yl-ethyl)-amide] | 1 nM | 100 nM | 19% | – |
| CC(=O)N1C/C(=C\c2ccc(F)cc2)c2c(c(C(=O)NN3CCCCC3)nn2-c2ccc(Cl)cc2Cl)C1 [Cpd 10, (7E)-5-acetyl-1-(2,4-dichloro-phenyl)-7-(4-fluoro-benzylidene)-4,5,6,7-tetrahydro-1H-pyrazolo[4,3-c]pyridine-3-carboxylic acid piperidin-1-ylamide] | 20 nM | 70 nM | 63% | – |
| C[C@@H](NC(=O)c1nn(-c2ccc(Cl)cc2Cl)c2c1CN(S(C)(=O)=O)C/C2=C\c1ccc(F)cc1)c1ccccc1 [Cpd 17] | 6 nM | 2 nM | 36% | – |
| CCNC(=O)N1CCc2c(c(C(=O)NC3C4(C)CCC(C4)C3(C)C)nn2-c2ccccc2)C1 (stereo not drawn) [Cpd 114, 1-phenyl-1,4,6,7-tetrahydro-pyrazolo[4,3-c]pyridine-3,5-dicarboxylic acid 5-ethylamide 3-[(1,3,3-trimethyl-bicyclo[2.2.1]hept-2-yl)-amide]] | – | – | 34% | CB1 Receptor Functional Activity (change in functional activity, CRE β-gal) [1]: 51%; inhibition at 0.2 µM ([2]; read-out: Cannabinoid CB1 Receptor Binding percent inhibition): 51% |
| CCC(=O)N1CCc2c(c(C(=O)NC3C4(C)CCC(C4)C3(C)C)nn2C2CCCCC2)C1 (stereo not drawn) [Cpd 122, 1-cyclohexyl-5-propionyl-4,5,6,7-tetrahydro-1H-pyrazolo[4,3-c]pyridine-3-carboxylic acid (1,3,3-trimethyl-bicyclo[2.2.1]hept-2-yl)-amide] | 900 nM | 600 nM | – | IC50 [3]: 10 nM |
| C[C@@H](NC(=O)c1nn(-c2ccc(Cl)cc2Cl)c2c1CN(C=O)C/C2=C\c1ccc(F)cc1)c1ccccc1 [Cpd 46, (7E)-1-(2,4-dichloro-phenyl)-7-(4-fluoro-benzylidene)-5-formyl-4,5,6,7-tetrahydro-1H-pyrazolo[4,3-c]pyridine-3-carboxylic acid [(1R)-1-phenyl-ethyl]-amide] | 0.1 nM | 6 nM | 18% | – |
| COc1ccc(/C=C2\CNCc3c(C(=O)N[C@H](C)c4ccccc4)nn(-c4ccc(Cl)cc4Cl)c32)cc1 [Cpd 38, (7E)-1-(2,4-dichloro-phenyl)-7-(4-methoxy-benzylidene)-4,5,6,7-tetrahydro-1H-pyrazolo[4,3-c]pyridine-3-carboxylic acid [(1R)-1-phenyl-ethyl]-amide] | 5 nM | 10 nM | 25% | – |
| COC(=O)N1C/C(=C\c2ccc(OC)cc2)c2c(c(C(=O)NN3CCCCC3)nn2-c2ccc(Cl)cc2Cl)C1 [Cpd 55, (7E)-1-(2,4-dichloro-phenyl)-7-(4-methoxy-benzylidene)-3-(piperidin-1-ylcarbamoyl)-1,4,6,7-tetrahydro-pyrazolo[4,3-c]pyridine-5-carboxylic acid methyl ester] | 2 nM | 5 nM | 66% | – |
| COC(=O)N1C/C(=C\c2ccc(OC)cc2)c2c(c(C(=O)NN3CC4CCCC4C3)nn2-c2ccc(Cl)cc2Cl)C1 (stereo not drawn) [Cpd 100, (7E)-1-(2,4-dichloro-phenyl)-3-(hexahydro-cyclopenta[c]pyrrol-2-ylcarbamoyl)-7-(4-methoxy-benzylidene)-1,4,6,7-tetrahydro-pyrazolo[4,3-c]pyridine-5-carboxylic acid methyl ester] | 1 nM | 7 nM | 63% | – |
| COc1ccc(/C=C2\CNCc3c(C(=O)N[C@H](C)c4ccccn4)nn(-c4ccc(Cl)cc4Cl)c32)cc1 [Cpd 93, (7E)-1-(2,4-dichloro-phenyl)-7-(4-methoxy-benzylidene)-4,5,6,7-tetrahydro-1H-pyrazolo[4,3-c]pyridine-3-carboxylic acid [(1R)-1-pyridin-2-yl-ethyl]-amide] | 8 nM | 30 nM | 7% | – |
| C[C@@H](NC(=O)c1nn(Cc2ccccc2)c2c1CN(C(=O)OC(C)(C)C)CC2)C1CCCCC1 [Cpd 103, 1-benzyl-3-[(1R)-1-cyclohexyl-ethylcarbamoyl]-1,4,6,7-tetrahydro-pyrazolo[4,3-c]pyridine-5-carboxylic acid tert-butyl ester] | – | – | – | CB1 Receptor Functional Activity (change in functional activity, CRE β-gal) [1]: 8%; IC50 [2, 4]: 300 nM; IC50 [3, 5]: 900 nM |
| C[C@@H](NC(=O)c1nn(-c2ccc(Cl)cc2Cl)c2c1CNC/C2=C\c1ccc(F)cc1)c1ccccc1 [Cpd 15, (7E)-1-(2,4-dichloro-phenyl)-7-(4-fluoro-benzylidene)-4,5,6,7-tetrahydro-1H-pyrazolo[4,3-c]pyridine-3-carboxylic acid [(1R)-1-phenyl-ethyl]-amide] | 10 nM | 10 nM | 23% | – |
| C[C@@H](NC(=O)c1nn(-c2ccc(Cl)cc2Cl)c2c1CN(S(=O)(=O)N(C)C)C/C2=C\c1ccc(F)cc1)c1ccccc1 [Cpd 39, (7E)-1-(2,4-dichloro-phenyl)-5-dimethylsulfamoyl-7-(4-fluoro-benzylidene)-4,5,6,7-tetrahydro-1H-pyrazolo[4,3-c]pyridine-3-carboxylic acid [(1R)-1-phenyl-ethyl]-amide] | 1 nM | 2 nM | – | inhibition at 0.2 µM ([3]; test concentration of 0.2 μM, compounds without an IC50 binding value): 42% |
| COC(=O)N1C/C(=C\c2ccc(OC)cc2)c2c(c(C(=O)NC(C)c3ccccn3)nn2-c2ccc(Cl)cc2Cl)C1 (stereo not drawn) [Cpd 62, (7E)-1-(2,4-dichloro-phenyl)-7-(4-methoxy-benzylidene)-3-(1-pyridin-2-yl-ethylcarbamoyl)-1,4,6,7-tetrahydro-pyrazolo[4,3-c]pyridine-5-carboxylic acid methyl ester] | 2 nM | 5 nM | 70% | – |
| COc1ccc(/C=C2\CNCc3c(C(=O)NN4CCCCC4)nn(-c4ccc(Cl)cc4Cl)c32)cc1 [Cpd 50, (7E)-1-(2,4-dichloro-phenyl)-7-(4-methoxy-benzylidene)-4,5,6,7-tetrahydro-1H-pyrazolo[4,3-c]pyridine-3-carboxylic acid piperidin-1-ylamide] | 2 nM | 100 nM | 20% | – |
